Tests used:
HUVEC = test: Three-dimensional migration (invasion) of HUVEC cells in MATRIGEL-permeated paper; format: cell-based, human
Experimental: A suspension of cells in […]™ (1 μL, 10^7 cells/mL) was spotted onto paper, and the paper was immersed in […]™. […] Migration of the cells into the surrounding […]™ was monitored over time using a fluorescent gel scanner. […] The radius of the cell-containing spot served as the measure of the migration. Cell-containing sheets were suspended in endothelial culture media supplemented with 100 ng/mL VEGF (“VEGF”) or 10 μM of small molecule inhibitor of Rho kinase Y27632 (“Y27632”).

3T3 fibroblasts = test: Proliferation of 3T3 fibroblasts in MATRIGEL-permeated paper in 96-well plate (Alamar Blue); format: cell-based; settings: colchicine added to the wells
Source text: One exemplary method is depicted in FIG. 8. In this method, a paper array of the same size is distributed to each well of the microtiter plate to ensure delivery of nearly identical number of cells per well (FIG. 8A). To illustrate this strategy, 2 mm×4 mm pieces of filter paper were permeated with suspension of 3T3 fibroblasts in MATRIGEL™ and then distributed into the wells of a 96-well plate. Alamar Blue was used to estimate the number of cells. […] 3T3 cells proliferated within MATRIGEL™-soaked paper but not within the MATRIGEL™-free paper (FIG. 8B), and this proliferation was halted when colchicine was added to the wells. This system, therefore, can be used to screen for agents that influence proliferation of cells in three-dimensional arrays.

[1] = test system: PC-12 rat adrenal pheochromocytoma cell line; test: Proliferation of PC-12 cells in MATRIGEL-permeated paper (phalloidin stain, gel scanner); format: cell-based; settings: serum-containing media, 100 ng/mL NGF
Experimental: First, we assessed the proliferation of PC-12 cells grown in paper in response to NGF. Suspensions of PC12 cells in MATRIGEL™ (1 uL, 5×10^6 cells/mL) were spotted onto filter paper. The paper was placed in serum-containing media (2.5% fetal bovine serum, 15% horse serum in F12K basal media) or serum-containing media supplemented with 100 ng/mL of nerve growth factor (NGF). Cells within paper MATRIGEL™ matrix were cultured for the indicated times, fixed with formaldehyde, and stained with Alexa Fluor 488-conjugated phalloidin. The paper was scanned using a Typhoon fluorescent gel scanner (see FIG. 13A). Error bars are one standard deviation.

PC-12 cells [2] = test: Neuronal differentiation of PC-12 cells in paper-supported MATRIGEL (confocal microscopy, neurites); format: cell-based, rat; settings: 6 days, 100 ng/mL NGF
Source text: Next, we assessed whether PC-12 cells maintained in paper-supported three-dimensional matrices were differentiated into neurons using NGF-treatment. We spotted suspensions of PC12 cells in MATRIGEL™ onto paper and suspended the paper in the media supplemented with NGF or with a combination of NGF and the ROCK inhibitor Y27632. Confocal microscopy examination uncovered neuron-like cells with long neurites. The morphology of cells and length of neurites varied when different media/additives were used.

PC-12 cells [3] = test: Quantitative PCR of neuronal transcripts NF-L and NPY in PC-12 cells; format: cell-based, rat; settings: 100 ng/mL, day 3 or 4, GAPDH as reference
Experimental: Finally, we compared the differentiation of PC-12 cells maintained in paper-supported MATRIGEL™ (“paper”) with that of cells in paper-free MATRIGEL™ (“3D”) or on MATRIGEL™ coated surfaces (“2D”).
Cells in these matrices were proliferated in serum-containing media or in media supplemented with 100 ng/mL NFG. On day 3 or 4, the samples were processed to isolate mRNA and the level of expression of NF-L or NPY were assessed by quantitative PCR. GAPDH and actin were used as housekeeping controls. ΔΔCT-analysis was performed in the linear range for every primer using GAPDH as a reference. In FIG. 14, each data point is an average of measurements from 3 independent samples. The error bar is one standard deviation.

VEGF was tested, and the “radius of the invasion” value (HUVEC; EGM with additional 100 ng/mL VEGF, compared with EGM+10 μM Y27632) was “significantly lower”.

In the case of `COc1cc2c(c(OC)c1OC)-c1ccc(OC)c(=O)cc1[C@@H](NC(C)=O)CC2` [colchicine], the “proliferation of 3T3 cells within MATRIGEL-soaked paper” value (3T3 fibroblasts) is reported as “halted”.

NGF: nerve growth factor was tested, and the “effect on growth rate of the cells” value [1] was “little effect”, the “neurites developed by cells” value (PC-12 cells [2]; serum containing media) was “short neurites” and the “neurites developed by cells” value (PC-12 cells [2]; serum-free media) was “longer neurites”. For the same molecule, the “level of NF-L expression” value (PC-12 cells [3]) was “induced” and the “level of NPY expression” value (PC-12 cells [3]) was “induced”.

`C[C@@H](N)[C@H]1CC[C@H](C(=O)Nc2ccncc2)CC1` [Y27632, reference compound] was tested, and the “outgrowth of cells (migration into surrounding MATRIGEL)” value (HUVEC; endothelial culture media + 10 μM Y27632) was “promoted” and the “neurites developed by cells” value (PC-12 cells [2]; serum-free media, 5 μM Y27632) was “extensive 3D network of interconnected neurites”.

Reference: patent US9829488B2, “Paper-based cellular arrays” (President and Fellows of Havard College, priority 2008, dated 2017)
